pIC50: −log10 of the molar value. Each block holds one molecule with its values, some of them ahead of it. Active and inactive are the calls of the source. No cut-off for these calls is given here.
Tests used:
[1] = system: LNCaP; assay: Antiproliferative activities against human LNCaP cells assessed as cell viability measured after 72 hrs by CCK8 assay; format: functional, cell-based
[2] = system: LNCaP C4-2B; assay: Antiproliferative activities against human LNCaP C4-2B cells assessed as cell viability measured after 72 hrs by CCK8 assay; format: functional, cell-based
[3] = system: LNCaP C4-2B; assay: Inhibition of colony formation in human LNCaP C4-2B cells measured after 14 days incubation by Crystal-violet staining based assay; format: functional, cell-based; details: dose 10-40 µM, time 14.0 day
[4] = system: LNCaP C4-2B; assay: Induction of cell cycle arrest in human LNCaP C4-2B cells assessed as accumulation cells at S phase at 20 uM measured after 48 hrs incubation by flow cytometry (reference value: 18.33%); format: functional
[5] = system: LNCaP C4-2B; assay: Induction of cell cycle arrest in human LNCaP C4-2B cells assessed as accumulation cells at G0/G1 phase at 20 uM measured after 48 hrs incubation by flow cytometry (reference value: 70.82%); format: functional
[6] = system: LNCaP C4-2B; assay: Induction of cell cycle arrest in human LNCaP C4-2B cells assessed as accumulation cells at G0/G1 phase at 5 uM measured after 48 hrs incubation by flow cytometry (reference value: 70.82%); format: functional
[7] = system: LNCaP C4-2B; assay: Induction of cell cycle arrest in human LNCaP C4-2B cells assessed as accumulation cells at G2/M phase at 10 uM measured after 48 hrs incubation by flow cytometry (reference value: 10.85%); format: functional
[8] = system: LNCaP C4-2B; assay: Induction of apoptosis in human LNCaP C4-2B cells assessed as apoptotic cells at 40 uM measured after 48 hrs of incubation by Annexin V-FITC staining based flow cytometry relative to control; format: functional
[9] = system: LNCaP C4-2B; assay: Induction of apoptosis in human LNCaP C4-2B cells assessed as apoptotic cells at 5 uM measured after 48 hrs of incubation by Annexin V-FITC staining based flow cytometry relative to control; format: functional
[10] = system: LNCaP C4-2B; assay: Induction of cell cycle arrest in human LNCaP C4-2B cells assessed as accumulation cells at G2/M phase at 40 uM measured after 48 hrs incubation by flow cytometry (reference value: 10.85%); format: functional
[11] = system: LNCaP C4-2B; assay: Induction of cell cycle arrest in human LNCaP C4-2B cells assessed as accumulation cells at G0/G1 phase at 10 uM measured after 48 hrs incubation by flow cytometry (reference value: 70.82%); format: functional
[12] = system: LNCaP C4-2B; assay: Inhibition of AR protein expression in human LNCaP C4-2B cells measured after 48 hrs by Western blot analysis; format: functional, cell-based; details: dose 12.5-50 µM
[13] = system: LNCaP C4-2B; assay: Induction of apoptosis in human LNCaP C4-2B cells assessed as apoptotic cells at 20 uM measured after 48 hrs of incubation by Annexin V-FITC staining based flow cytometry relative to control; format: functional
[14] = system: LNCaP C4-2B; assay: Induction of cell cycle arrest in human LNCaP C4-2B cells assessed as accumulation cells at S phase at 10 uM measured after 48 hrs incubation by flow cytometry (reference value: 18.33%); format: functional
[15] = system: LNCaP C4-2B; assay: Induction of cell cycle arrest in human LNCaP C4-2B cells assessed as accumulation cells at G2/M phase at 20 uM measured after 48 hrs incubation by flow cytometry (reference value: 10.85%); format: functional
[16] = system: LNCaP C4-2B; assay: Induction of cell cycle arrest in human LNCaP C4-2B cells assessed as accumulation cells at G0/G1 phase at 40 uM measured after 48 hrs incubation by flow cytometry (reference value: 70.82%); format: functional
[17] = system: LNCaP C4-2B; assay: Induction of apoptosis in human LNCaP C4-2B cells assessed as apoptotic cells at 10 uM measured after 48 hrs of incubation by Annexin V-FITC staining based flow cytometry relative to control; format: functional
[18] = system: LNCaP C4-2B; assay: Induction of cell cycle arrest in human LNCaP C4-2B cells assessed as accumulation cells at S phase at 5 uM measured after 48 hrs incubation by flow cytometry (reference value: 18.33%); format: functional
[19] = system: LNCaP; assay: Inhibition of AR protein expression in human LNCaP cells measured after 48 hrs by Western blot analysis; format: functional, cell-based; details: dose 12.5-50 µM
[20] = system: LNCaP C4-2B; assay: Induction of cell cycle arrest in human LNCaP C4-2B cells assessed as accumulation cells at S phase at 40 uM measured after 48 hrs incubation by flow cytometry (reference value: 18.33%); format: functional
[21] = system: LNCaP C4-2B; assay: Induction of cell cycle arrest in human LNCaP C4-2B cells assessed as accumulation cells at G2/M phase at 5 uM measured after 48 hrs incubation by flow cytometry (reference value: 10.85%); format: functional

SMILES: COC(=O)c1ccc(C)cc1NC(=O)COc1cccc2ccccc12
Activity [1]: inactive

SMILES: COC(=O)c1ccc(Cl)cc1NC(=O)COc1ccc(F)c2ccccc12
Activity [1]: inactive

SMILES: COC(=O)c1ccc(Cl)cc1NC(=O)COc1ccnc2ccccc12
pIC50 [1]: 4.49

SMILES: COC(=O)c1ccc(Cl)cc1NC(=O)COc1ccc(Br)c2ccccc12
inhibition [3]: Dose-Dependent Effect
pIC50 [1]: 4.88
pIC50 [2]: < 4.30

SMILES: COC(=O)c1ccc(Cl)cc1NC(=O)COc1ccc(Cl)c2ccccc12
pIC50 [1]: 4.70

SMILES: COC(=O)c1ccc(Cl)cc1NC(=O)COc1cccc2ccccc12
pIC50 [1]: 4.77
pIC50 [2]: 4.47

SMILES: COC(=O)c1ccc(Cl)cc1NC(=O)COc1ccc(OC)c2ccccc12
Activity [1]: inactive

SMILES: COC(=O)c1ccc(F)cc1NC(=O)COc1cccc2ccccc12
pIC50 [1]: 4.49

SMILES: COC(=O)c1ccc(C(F)(F)F)cc1NC(=O)COc1cccc2ccccc12
Activity [1]: inactive

Continued, in another order:

pIC50 [1]: < 4.30
SMILES: O=C(COc1cccc2ccccc12)Nc1cc(Cl)ccc1C(=O)O
Activity [2]: inactive

pIC50 [1]: 4.38
SMILES: COC(=O)c1cc(F)c(Cl)cc1NC(=O)COc1cccc2ccccc12

pIC50 [1]: 4.31
SMILES: COC(=O)c1ccc(Br)cc1NC(=O)COc1cccc2ccccc12

pIC50 [1]: 4.72
SMILES: COC(=O)c1ccc(Cl)cc1NC(=O)C(C)Oc1cccc2ccccc12 (stereo not given)

pIC50 [1]: 4.71
SMILES: COC(=O)c1ccc(OC)cc1NC(=O)COc1cccc2ccccc12

pIC50 [1]: 4.91
pIC50 [2]: 5.06
SMILES: COC(=O)c1ccc(I)cc1NC(=O)COc1cccc2ccccc12
Activity [4]: 12.61%
Activity [5]: 77.27%
Activity [6]: 70.84%
Activity [7]: 11.44%
Activity [8]: 96.6%
Activity [9]: 34.5%
Activity [10]: 8.84%
Activity [11]: 71.03%
inhibition [12]: Dose-Dependent Effect
Activity [13]: 92.9%
Activity [14]: 17.53%
Activity [15]: 10.12%
Activity [16]: 79.62%
Activity [17]: 79%
Activity [18]: 18.11%
inhibition [19]: Dose-Dependent Effect
Activity [20]: 11.54%
Activity [21]: 11.05%

pIC50 [1]: 4.47
SMILES: CNC(=O)c1ccc(Cl)cc1NC(=O)COc1cccc2ccccc12

pIC50 [1]: 4.60
SMILES: COC(=O)c1ccc(Cl)cc1NC(=O)COc1cccc2cnccc12
